Values quoted from earlier work, collected in publication PMC8542980, “The Scavenger Function of Liver Sinusoidal Endothelial Cells in Health and Disease” (Frontiers in Physiology, 2021).
Read-outs that look alike come from different tables or passages of the source. Blank lines part the entries; values can stand above or below the molecule they belong to.

How the values were obtained:
[1] = test system: endocytic hyaluronan receptor
[2] = set-up: method as in Fraser et al., 1981; conditions: rabbit, ref Fraser et al., 1981
[3] = set-up: method as in Fraser et al., 1984; conditions: human, ref Fraser et al., 1984
[4] = ref Smedsrød et al., 1984, Laurent et al., 1986b
[5] = rat, 1 μg, tail vein, ref Smedsrød and Einarsson, 1990
[6] = rats, whole body autoradiography 10 min after injection, ref Fraser et al., 1985

Molecule: chondroitin sulfate [[^3H]-chondroitin sulfate (CS)]
site of main uptake (rat, clearance rate not examined, ref Smedsrød et al., 1985b): Clearance rate not examined but the main uptake was in LSECs

inhibition of the uptake and binding of hyaluronan by LSECs ([1]; ref Smedsrød et al., 1984): can inhibit
affinity of the rat receptor compared with hyaluronan of the same chain length [1, 4]: threefold greater affinity
Molecule: chondroitin sulfate

affinity of the rat receptor [1, 4]: no affinity
Molecule: heparin [listing 1 of 2 here]

Molecule: heparin [listing 2 of 2 here]
Decay of plasma/blood radioactivity, t1/2 (rat, 0.1 IU/kg, tail vein, ref Øie et al., 2008): 1.71 min
recovered in liver (rat, after 15 min, ref Øie et al., 2008): 71%

Molecule: hyaluronan
uptake in liver (rat, at 30 min after injection, ref Dahl et al., 1988): 79%
Decay of plasma/blood radioactivity, t1/2α (rat, tail vein, MW = 2.5 × 10^5, ref Dahl et al., 1988): 0.9 min

inhibition of the binding of hyaluronan by LSECs ([1]; ref Raja et al., 1988, McGary et al., 1989): can also inhibit
Molecule: Dextran sulfate

Molecule: ^125I-tPA: 125I-labeled tissue plasminogen activator
% eliminated with t1/2α [5]: 65%
% eliminated with t1/2β [5]: 35%
Decay of plasma/blood radioactivity, t1/2α [5]: 0.6 min
Decay of plasma/blood radioactivity, t1/2β [5]: 6.4 min

affinity of the rat receptor [1, 4]: no affinity
Molecule: heparan sulfate

Kd ([1]; endocytic hyaluronan receptor of LSECs, ref Laurent et al., 1986b, read-out: dissociation constant): 9 pM
Molecule: hyaluronan [hyaluronan of 6.4 × 10^6 Da]

Molecule: hyaluronan [[^3H]-hyaluronan]
Decay of plasma/blood radioactivity, t1/2 ([2]; 30–32 μg, marginal ear vein): 2.5 to 4.5 min
uptake in liver ([2]; at 19 min after injection): 88%
injected radioactivity found in Kupffer cells [6]: none
injected radioactivity found in the cytoplasm of LSECs [6]: approximately 90%
time to appearance of degradation products in the supernatant (LSECs; LSEC cultures, 37°C, after addition of ligand, ref Smedsrød et al. (1984)): ≤ 30 min
time to steady state levels of internalized ligand and degradation products (LSECs; LSEC cultures, 37°C, into the incubation, ref Smedsrød et al. (1984)): 60 to 75 min
Decay of plasma/blood radioactivity, t1/2 ([3]; 60–130 μg, cubital vein): 2.6 to 5.5 min
eliminated from blood ([3]; after 10 min): 90%

Molecule: C[C@@H]1C[C@@H]([C@H](O)CC2CC(=O)NC(=O)C2)C(=O)[C@@H](C)C1 [cycloheximide]
effect on the endocytosis of hyaluronan by cultured LSECs (LSECs; inhibitor of protein synthesis, ref McGary et al., 1989): no effect

B1: ^125I-TC-nidogen: nidogen labeled with 125I-tyramine cellobiose (protein, UniProt P14543 29-1247, looked up)
Nidogen-1: LSRQELFPFGPGQGDLELEDGDDFVSPALELSGALRFYDRSDIDAVYVTTNGIIATSEPPAKESHPGLFPPTFGAVAPFLADLDTTDGLGKVYYREDLSPSITQRAAECVHRGFPEISFQPSSAVVVTWESVAPYQGPSRDPDQKGKRNTFQAVLASSDSSSYAIFLYPEDGLQFHTTFSKKENNQVPAVVAFSQGSVGFLWKSNGAYNIFANDRESVENLAKSSNSGQQGVWVFEIGSPATTNGVVPADVILGTEDGAEYDDEDEDYDLATTRLGLEDVGTTPFSYKALRRGGADTYSVPSVLSPRRAATERPLGPPTERTRSFQLAVETFHQQHPQVIDVDEVEETGVVFSYNTDSRQTCANNRHQCSVHAECRDYATGFCCSCVAGYTGNGRQCVAEGSPQRVNGKVKGRIFVGSSQVPIVFENTDLHSYVVMNHGRSYTAISTIPETVGYSLLPLAPVGGIIGWMFAVEQDGFKNGFSITGGEFTRQAEVTFVGHPGNLVIKQRFSGIDEHGHLTIDTELEGRVPQIPFGSSVHIEPYTELYHYSTSVITSSSTREYTVTEPERDGASPSRIYTYQWRQTITFQECVHDDSRPALPSTQQLSVDSVFVLYNQEEKILRYALSNSIGPVREGSPDALQNPCYIGTHGCDTNAACRPGPRTQFTCECSIGFRGDGRTCYDIDECSEQPSVCGSHTICNNHPGTFRCECVEGYQFSDEGTCVAVVDQRPINYCETGLHNCDIPQRAQCIYTGGSSYTCSCLPGFSGDGQACQDVDECQPSRCHPDAFCYNTPGSFTCQCKPGYQGDGFRCVPGEVEKTRCQHEREHILGAAGATDPQRPIPPGLFVPECDAHGHYAPTQCHGSTGYCWCVDRDGREVEGTRTRPGMTPPCLSTVAPPIHQGPAVPTAVIPLPPGTHLLFAQTGKIERLPLEGNTMRKTEAKAFLHVPAKVIIGLAFDCVDKMVYWTDITEPSIGRASLHGGEPTTIIRQDLGSPEGIAVDHLGRNIFWTDSNLDRIEVAKLDGTQRRVLFETDLVNPRGIVTDSVRGNLYWTDWNRDNPKIETSYMDGTNRRILVQDDLGLPNGLTFDAFSSQLCWVDAGTNRAECLNPSQPSRRKALEGLQYPFAVTSYGKNLYFTDWKMNSVVALDLAISKETDAFQPHKQTRLYGITTALSQCPQGHNYCSVNNGGCTHLCLATPGSRTCRCPDNTLGVDCIEQK
modifications: 125I-tyramine cellobiose label
notes: nidogen labeled with 125I-tyramine cellobiose
recovered in liver (rat, after 1 h, ref Smedsrød et al., 1989): 78%
Decay of plasma/blood radioactivity, t1/2 (rat, trace amounts, tail vein, ref Smedsrød et al., 1989): 2 to 3 min
